According to ChEMBL document CHEMBL3044527, “Involvement of melanin synthesis and reactive oxygen species in phytotoxic action of l-DOPA in carrot cells” (2007):
Calls of active or inactive are those of the source. No cut-off for these calls is given here.

What was measured:
Format in all cases: functional
[1] = test system: Daucus carota; experiment: Phytotoxicity against Daucus carota (carrot) cells grown in culture assessed as increase in ROS level at 1 mM after 24 hr by MPEC-based chemiluminescence assay in presence of ascorbic acid relative to control
[2] = test system: Daucus carota; experiment: Phytotoxicity against Daucus carota (carrot) cells grown in culture assessed as melanin per packed cell volume at 1 mM after 4 days by spectrophotometric analysis in presence of alpha-tocopherol (reference value: 21.3 ug per packed cell volume)
[3] = test system: Daucus carota; experiment: Phytotoxicity against Daucus carota (carrot) cells grown in culture assessed as lipid peroxidation at 1 mM after 4 to 6 days by TBARS method relative to control
[4] = test system: Daucus carota; experiment: Phytotoxicity against Daucus carota (carrot) cells grown in culture assessed as growth inhibition at 1 mM after 2 days in presence of ascorbic acid relative to control
[5] = test system: Daucus carota; experiment: Phytotoxicity against Daucus carota (carrot) cells grown in culture assessed as melanin per packed cell volume at 0.1 mM after 2 days by spectrophotometric analysis (reference value: 23.7 ug per packed cell volume)
[6] = test system: Daucus carota; experiment: Phytotoxicity against Daucus carota (carrot) cells grown in culture assessed as increase in ROS level after 24 hr by MPEC-based chemiluminescence assay relative to control
[7] = test system: Daucus carota; experiment: Phytotoxicity against Daucus carota (carrot) cells grown in culture assessed as growth inhibition at 1 mM after 2 days relative to control; details: 48 h, values are per cent of control
[8] = test system: Daucus carota; experiment: Phytotoxicity against Daucus carota (carrot) cells grown in culture assessed as growth inhibition at 1 mM after 6 days in presence of ascorbic acid relative to control
[9] = test system: Daucus carota; experiment: Phytotoxicity against Daucus carota (carrot) cells grown in culture assessed as increase in ROS level at 1 mM after 24 hr by MPEC-based chemiluminescence assay in presence of catalase relative to control
[10] = test system: Daucus carota; experiment: Phytotoxicity against Daucus carota (carrot) cells grown in culture assessed as growth inhibition at 1 mM after 2 to 6 days in presence of SOD relative to control
[11] = test system: Daucus carota; experiment: Phytotoxicity against Daucus carota (carrot) cells grown in culture assessed as growth inhibition at 0.1 mM after 6 days relative to control; details: 144 h, values are per cent of control
[12] = test system: Daucus carota; experiment: Phytotoxicity against Daucus carota (carrot) cells grown in culture assessed as lipid peroxidation at 1 mM after 2 days by TBARS method in presence of ascorbic acid relative to control
[13] = test system: Daucus carota; experiment: Phytotoxicity against Daucus carota (carrot) cells grown in culture assessed as growth inhibition at 0.1 mM after 4 days relative to control; details: 96 h, values are per cent of control
[14] = test system: Daucus carota; experiment: Phytotoxicity against Daucus carota (carrot) cells grown in culture assessed as increase in ROS level at 1 mM after 24 hr by MPEC-based chemiluminescence assay in presence of SOD relative to control
[15] = test system: Daucus carota; experiment: Phytotoxicity against Daucus carota (carrot) cells grown in culture assessed as lipid peroxidation at 1 mM after 2 days by TBARS method relative to control
[16] = test system: Daucus carota; experiment: Phytotoxicity against Daucus carota (carrot) cells grown in culture assessed as melanin per packed cell volume at 1 mM after 6 days by spectrophotometric analysis (reference value: 27.2 ug per packed cell volume)
[17] = test system: Daucus carota; experiment: Phytotoxicity against Daucus carota (carrot) cells grown in culture assessed as melanin per packed cell volume at 1 mM after 6 days by spectrophotometric analysis in presence of alpha-tocopherol (reference value: 27.2 ug per packed cell volume)
[18] = test system: Daucus carota; experiment: Phytotoxicity against Daucus carota (carrot) cells grown in culture assessed as melanin per packed cell volume at 1 mM after 2 days by spectrophotometric analysis in presence of alpha-tocopherol (reference value: 23.7 ug per packed cell volume)
[19] = test system: Daucus carota; experiment: Phytotoxicity against Daucus carota (carrot) cells grown in culture assessed as melanin per packed cell volume at 1 mM after 2 days by spectrophotometric analysis in presence of ascorbic acid (reference value: 23.7 ug per packed cell volume)
[20] = test system: Daucus carota; experiment: Phytotoxicity against Daucus carota (carrot) cells grown in culture assessed as growth inhibition at 1 mM after 4 days relative to control; details: 96 h, values are per cent of control
[21] = test system: Daucus carota; experiment: Phytotoxicity against Daucus carota (carrot) cells grown in culture assessed as melanin per packed cell volume at 1 mM after 6 days by spectrophotometric analysis in presence of ascorbic acid (reference value: 27.2 ug per packed cell volume)
[22] = test system: Daucus carota; experiment: Phytotoxicity against Daucus carota (carrot) cells grown in culture assessed as growth inhibition at 0.1 mM after 8 days relative to control; details: 192 h, values are per cent of control
[23] = test system: Daucus carota; experiment: Phytotoxicity against Daucus carota (carrot) cells grown in culture assessed as lipid peroxidation at 1 mM after 2 days by TBARS method in presence of alpha-tocopherol relative to control
[24] = test system: Daucus carota; experiment: Phytotoxicity against Daucus carota (carrot) cells grown in culture assessed as growth inhibition at 1 mM after 6 days relative to control; details: 144 h, values are per cent of control
[25] = test system: Daucus carota; experiment: Phytotoxicity against Daucus carota (carrot) cells grown in culture assessed as growth inhibition at 1 mM after 2 to 6 days in presence of catalase relative to control
[26] = test system: Daucus carota; experiment: Phytotoxicity against Daucus carota (carrot) cells grown in culture assessed as growth inhibition at 1 mM after 4 days in presence of ascorbic acid relative to control
[27] = test system: Daucus carota; experiment: Phytotoxicity against Daucus carota (carrot) cells grown in culture assessed as melanin per packed cell volume at 1 mM after 4 days by spectrophotometric analysis (reference value: 21.3 ug per packed cell volume)
[28] = test system: Daucus carota; experiment: Phytotoxicity against Daucus carota (carrot) cells grown in culture assessed as melanin per packed cell volume at 0.1 mM after 6 days by spectrophotometric analysis (reference value: 27.2 ug per packed cell volume)
[29] = test system: Daucus carota; experiment: Phytotoxicity against Daucus carota (carrot) cells grown in culture assessed as melanin per packed cell volume at 0.1 mM after 4 days by spectrophotometric analysis (reference value: 21.3 ug per packed cell volume)
[30] = test system: Daucus carota; experiment: Phytotoxicity against Daucus carota (carrot) cells grown in culture assessed as growth inhibition at 1 mM after 2 to 6 days in presence of alpha-tocopherol relative to control
[31] = test system: Daucus carota; experiment: Phytotoxicity against Daucus carota (carrot) cells grown in culture assessed as growth inhibition at 1 mM after 8 days relative to control; details: 192 h, values are per cent of control
[32] = test system: Daucus carota; experiment: Phytotoxicity against Daucus carota (carrot) cells grown in culture assessed as melanin per packed cell volume at 1 mM after 4 days by spectrophotometric analysis in presence of ascorbic acid (reference value: 21.3 ug per packed cell volume)
[33] = test system: Daucus carota; experiment: Phytotoxicity against Daucus carota (carrot) cells grown in culture assessed as melanin per packed cell volume at 1 mM after 2 days by spectrophotometric analysis (reference value: 23.7 ug per packed cell volume)
[34] = test system: Daucus carota; experiment: Phytotoxicity against Daucus carota (carrot) cells grown in culture assessed as growth inhibition at 0.1 mM after 2 days relative to control; details: 48 h, values are per cent of control

N[C@@H](Cc1ccc(O)c(O)c1)C(=O)O [LEVODOPA]
Activity [1]: inactive
Activity [2]: 27.4 µg
Activity [3]: inactive
Activity [4]: inactive
Activity [5]: 26.8 µg
Activity [6]: Active
growth, % of control at 1000 µM [7]: 62%
Activity [8]: inactive
Activity [9]: Active
Activity [10]: Active
growth, % of control at 100 µM [11]: 80.9%
Activity [12]: inactive
growth, % of control at 100 µM [13]: 88.2%
Activity [14]: Active
Activity [15]: Active
Activity [16]: 66.1 µg
Activity [17]: 28.1 µg
Activity [18]: 27.9 µg
Activity [19]: 17.9 µg
growth, % of control at 1000 µM [20]: 59.6%
Activity [21]: 28.2 µg
growth, % of control at 100 µM [22]: 83.7%
Activity [23]: inactive
growth, % of control at 1000 µM [24]: 60.9%
Activity [25]: Active
Activity [26]: inactive
Activity [27]: 42.8 µg
Activity [28]: 32.2 µg
Activity [29]: 31.7 µg
Activity [30]: inactive
growth, % of control at 1000 µM [31]: 64.9%
Activity [32]: 22.9 µg
Activity [33]: 28.4 µg
growth, % of control at 100 µM [34]: 84.7%
